For data set [1], the system named is CHO-K1, Jurkat, L1210, MDA-MB-231, ZR-75-1 and MCF-7 cells. The data set is described as follows: Reversal of DFMO-induced cytostasis by exogenous spermidine in a variety of mammalian cell lines. In kind it is cell-based. As to conditions: 50-100 μM BNSD-X. The method, then: FIGS. 5A, 5B, 5C, 5D, 5E and 5F are graphs representing that a compound used in a method according to a preferred embodiment antagonizes rescue of DFMO-induced cytostasis by exogenous spermidine. In particular, CHO-K1 (A), Jurkat (B), L1210 (C), MDA-MB-231 (D), ZR-75-1 (E) and MCF-7 cells (F) were grown to near confluency or saturation (for 4 to 11 d according to the cell line considered) with the indicated concentrations of spermidine in medium containing 1 mM aminoguanidine, in the presence of DFMO (●), BNSD-X (□), DFMO plus BNSD-X (▪), or in the absence of either agent (∘), and total DNA content per culture was then determined. The optimal concentration of either DFMO (1 to 5 mM) or BNSD-X (50 or 100 μM) was used for the each cell line as determined in pilot experiments. Data are presented as the mean±SD for triplicate cultures from one out of at least three identical experiments for each cell line;
To determine the ability of polyamine transport antagonists to potentiate DFMO-induced inhibition of cell proliferation in the presence of exogenous polyamines, cells were grown for the indicated period in growth medium supplemented with 1 mM aminoguanidine, and either DFMO (1 to 5 mM), the indicated transport inhibitor (50 or 100 μM), or the combination thereof, as well as increasing concentrations of spermidine (0.1 to 300 μM). Fresh medium was added every other day, and cell mass was determined at various time points during the period of exponential growth, or at the end of the experimental period. For the latter experiments, the FBS supplement was replaced with dextran-coated charcoal-treated FBS (5%, v/v) plus 0.5 μg/ml insulin in the case of T-47D, ZR-75-1 and MCF-7 cells (U.S. Pat. No. 6,083,496).

For data set [2], the system named is Jurkat, LAN-1, L1210, T-47D, ZR-75-1 and MDA-MB-231 cells. The data set is described as follows: Effect of BNSD-X on cell proliferation in various mammalian cell lines. The format is cell-based. Conditions: 1 mM aminoguanidine; 4 to 11 d. The method, then: FIGS. 3A and 3B are graphs showing the effect compounds used in a method according preferred embodiment of the present invention, on cell proliferation. In particular, they relate to the effect of selected BSD and BNSD derivatives on T-47D cell proliferation. Cells were incubated for 9 d with the indicated concentrations of BSD-2 (∘), BNSD-4 (●), BSD-4 (□), BNSD-6 (▪), BSD-10 (Δ), BSD-4-ene (▴) and BSD-4-yne (▾) in medium containing 1 mM aminoguanidine, and total DNA content per culture was then determined. B, Effect of BNSD-X (N,N,N′,N′-tetrakis-(3-aminopropyl)-p-diaminoxylene) on cell proliferation in various mammalian cell lines. Jurkat (∘), LAN-1 (●), L1210 (□), T-47D (▪), ZR-75-1 (Δ) and MDA-MB-231 (▴) cells were grown to near confluency or saturation (for 4 to 11 d according to the cell line considered) with the indicated concentrations of BNSD-X in the presence of 1 mM aminoguanidine, and total DNA content per culture was then determined. Data are given as the mean±SD for triplicate cultures from one out of at least two identical experiments;
The effect of transport inhibitors on cell proliferation was evaluated by determination of cell number (L1210, Jurkat) using electronic sizing with a Model ZM Coulter counter (Coulter Electronics, Hialeah, Fla.), or DNA content per culture (for all other cell lines) with the 3,5-diaminobenzoic acid assay. […]

With `NCCCN(CCCN)Cc1ccc(CN(CCCN)CCCN)cc1` [28a, N,N,N′,N′-tetrakis-(3-aminopropyl)-p-diaminoxylene], in data set [1] (DFMO 1 to 5 mM), the “increase of the spermidine concentration required to fully restore cell proliferation upon treatment with DFMO” value lay within 10 to 100 fold. Besides, the “effect of the inhibitor alone on cell proliferation” value in data set [1] (except L1210 and, to a lesser degree, MCF-7 cells) is reported as “little or no effect”. Moreover, the “effect on proliferation of a panel of mammalian cell lines” value in data set [2] is given as “remarkably inert”.

The values are drawn from patent US7425579B2, “Methods for inhibiting activity of polyamine transporters” (Universite Laval, priority 1998, dated 2008).
